Earlier results, collected in patent publication US20090247593A1, “N-THIAZOL-2-YL-BENZAMIDE DERIVATIVES” (H. Lundbeck A/S, priority 2003, published 2009).
Like-named read-outs stand apart in the source and are kept apart here.

Legend:
[1] = system: MPTP treated mice and 6-OHDA-lesioned rats
[2] = system: unilateral 6-OHDA lesioned mice and rats; details: elicited by a subthreshold dose of levodopa
mice [3] = details: for total immobility time: mouse tail suspension test
[4] = system: non-human primates treated with MPTP
mice [5] = details: mouse forced swimming test
[6] = mice previously screened for having high immobility time

Row | Structure (SMILES) | contralateral rotations [2] | total immobility time (mice [3]) | immobility (mice [3]; [6]) | immobility time (mice [5]) | other results
1 | CCn1c(=O)c2c(nc(/C=C/c3ccc(OC)c(OC)c3)n2C)n(CC)c1=O [KW-6002, 8-[(1E)-2-(3,4-dimethoxyphenyl)ethenyl]-1,3-diethyl-3,7-dihydro-7-methyl-1H-purine-2,6-dione] | enhance contralateral rotations | reduced the total immobility time | – | – | functional loss of dopaminergic nerve terminals in the striatum [1]: prevented functional loss of dopaminergic nerve terminals in the striatum; gliosis normally induced around degenerating neurons [1]: prevented gliosis; motor impairment ([4]; induced in non-human primates by MPTP): significantly improves motor impairment; dyskinesias ([4]; non-human primates, MPTP): without causing dyskinesias
2 | Nc1nc(NCCc2ccc(O)cc2)nc2nc(-c3ccco3)nn12 [ZM241385, 4-(2-[7-amino-2-(2-furyl) [1,2,4]triazolo[2,3-a][1,3,5]triazin-5-ylamino]-ethyl)phenol] | – | – | reduce immobility | – | –
3 | Nc1nc2c(cnn2CCc2ccccc2)c2nc(-c3ccco3)nn12 [SCH58261, 2-(2-furanyl)-7-(2-phenylethyl)-7H-pyrazolo[4,3-e][1,2,4]triazolo[1,5-c]pyrimidin-5-amine] | enhance contralateral rotations | reduced the total immobility time | reduce immobility | – | immobility (mice [3]; mice selectively bred for their helplessness): reduced immobility
4 | Nc1ncnc2c1ncn2[C@@H]1O[C@H](CO)[C@@H](O)[C@H]1O [adenosine] | – | – | – | increased immobility time | –
5 | Nc1nc(Cl)nc2c1ncn2[C@@H]1O[C@H](CO)[C@@H](O)[C@H]1O [2-chloroadenosine] | – | – | – | increased immobility time | –
